According to patent US5075298A, “Cephalosporins” (Roussel Uclaf, priority 1987, dated 1991):
Structures can show the parent of a compound that is named as a salt.

Assays:
Experiment in all cases: In vitro activity, dilution method in a liquid medium (MIC)
Type in all cases: cell-based
Escherichia Coli UC 1894 = settings: UC1894, 24 H
Procedure: (§1) In vitro activity, dilution method in a liquid medium.
(§2) A series of tubes were prepared in which an equal quantity of sterile nutritive medium was distributed. Increasing quantities of the product under test were distributed into each tube and then each tube was seeded with a bacterial strain. After incubation for 24 or 48 hours in an incubator at 37° C., the inhibition of the growth was estimated by transillumination, which enabled the minimal inhibiting concentrations (M.I.C.), expressed in micrograms/ml to be determined.

[1] = tested on: Kiebsiella pneumoniae Exp. 52 145; settings: 24 H
Procedure: as §1, §2

[2] = tested on: Enterobacter cloacae 1 321 E; settings: 1321E, 24 H
Procedure: as §1, §2

Escherichia Coli O 75 = settings: COLIO75, 24 H
Procedure: as §1, §2

Providencia Du 48 = settings: DU48, 24 H
Procedure: as §1, §2

[3] = tested on: Pseudomonas aeruginosa 1771 m; settings: 24 H
Procedure: as §1, §2

[4] = tested on: Staphylococcus aureus 285; settings: 24 H
Procedure: as §1, §2

Escherichia Coli DC 0 = settings: COLIDC0, 24 H
Procedure: as §1, §2

[5] = tested on: Kiebsiella aerogenes 1 522 E; settings: 24 H
Procedure: as §1, §2

Serratia RG 2 532 = settings: RG2532, 24 H
Procedure: as §1, §2

Escherichia Coli DC 2 = settings: COLIDC2, 24 H
Procedure: as §1, §2

Escherichia Coli 1507 E = settings: COLI1507E, 24 H
Procedure: as §1, §2

[6] = tested on: Proteus vulgaris (indol) A 232; settings: 24 H
Procedure: as §1, §2

Escherichia Coli T E M = settings: 24 H
Procedure: as §1, §2

[7] = tested on: Streptococcus pyogenes A 561; settings: A561, 24 H
Procedure: as §1, §2

[8] = tested on: Streptococcus pyogenes 77 A; settings: 24 H
Procedure: as §1, §2

[9] = tested on: Saimonella typhimurium MZ 11; settings: 24 H
Procedure: as §1, §2

[10] = tested on: Proteus mirabilis (indol-) A 235; settings: 24 H
Procedure: as §1, §2

[11] = tested on: Staphylococcus aureus Exp. n° 54 146; settings: 24 H
Procedure: as §1, §2

With `Nc1nc(/C(=N/OC(F)F)C(=O)N[C@@H]2C(=O)N3C(C(=O)[O-])=C(/C=C/C[n+]4cccc5ccsc54)CS[C@H]23)cs1` [ex. 2, (6R,7R)-7-[[(2-amino-4-thiazolyl) [(Z)]-[(difluoromethoxy)imino]]acetamido]-8-oxo-3 [(E) 3-[7-[thieno[2,3-b]pyridino]-1-propenyl]-5-thia-1-azabicyclo[4,2,0]oct-2-en-2-carboxylate (internal salt)] the MIC (Escherichia Coli UC 1894) was 0.04 µg/mL, the MIC [1] was 0.6 µg/mL and the MIC [2] was 0.3 µg/mL. The MIC (Escherichia Coli O 75) was 1.2 µg/mL, the MIC (Providencia Du 48) was 2.5 µg/mL and the MIC [3] was 1.2 µg/mL. It also gave an MIC [4] of 5 µg/mL, an MIC (Escherichia Coli DC 0) of 2.5 µg/mL and an MIC [5] of 0.6 µg/mL. It also gave an MIC (Serratia RG 2 532) of 10 µg/mL, an MIC (Escherichia Coli DC 2) of 0.6 µg/mL and an MIC (Escherichia Coli 1507 E) of 0.15 µg/mL. It also gave an MIC [6] of 0.3 µg/mL, an MIC (Escherichia Coli T E M) of 0.6 µg/mL and an MIC [7] of no more than 0.01 µg/mL. It also gave an MIC [8] of no more than 0.01 µg/mL, an MIC [9] of 0.3 µg/mL and an MIC [10] of 0.08 µg/mL. It also gave an MIC [11] of 5 µg/mL.
`CO/N=C(\C(=O)N[C@@H]1C(=O)N2C(C(=O)[O-])=C(/C=C/C[n+]3cccc4ccsc43)CS[C@H]12)c1csc(N)n1` [ex. 3, (6R,7R)-7-[[(2-amino-4-thiazolyl)-[(Z)[methoxyimino]]-acetamido]-8-oxo-3-[(E)-3-[7-[thieno[2,3-b]pyridinio]-1-propenyl]-5-thia-1-azabicyclo[4,2,0]oct-2-en-2-carboxylate (internal salt)] showed an MIC (Escherichia Coli UC 1894) of 0.08 µg/mL, an MIC [1] of 1.2 µg/mL and an MIC [2] of 0.6 µg/mL. It also gave an MIC (Escherichia Coli O 75) of 0.3 µg/mL, an MIC (Providencia Du 48) of 1.2 µg/mL and an MIC [3] of 2.5 µg/mL. For the same compound, the MIC [4] was 2.5 µg/mL, the MIC (Escherichia Coli DC 0) was 1.2 µg/mL and the MIC [5] was 0.6 µg/mL. It also gave an MIC (Serratia RG 2 532) of 5 µg/mL, an MIC (Escherichia Coli DC 2) of 0.08 µg/mL and an MIC (Escherichia Coli 1507 E) of 0.04 µg/mL. For the same compound, the MIC [6] was 0.2 µg/mL, the MIC (Escherichia Coli T E M) was 0.6 µg/mL and the MIC [7] was no more than 0.01 µg/mL. The MIC [8] was no more than 0.01 µg/mL, the MIC [9] was 0.3 µg/mL and the MIC [10] was 0.04 µg/mL. It also gave an MIC [11] of 2.5 µg/mL.
For `CO/N=C(\C(=O)N[C@@H]1C(=O)N2C(C(=O)O)=C(/C=C/C[n+]3cccc4ccsc43)CS[C@H]12)c1csc(N)n1` [ex. 1], the MIC (Escherichia Coli UC 1894) was no more than 0.01 µg/mL, the MIC [1] was 0.08 µg/mL and the MIC [2] was 0.04 µg/mL. The MIC (Escherichia Coli O 75) was 0.02 µg/mL, the MIC (Providencia Du 48) was 0.3 µg/mL and the MIC [3] was 0.6 µg/mL. It also gave an MIC [4] of 0.15 µg/mL, an MIC (Escherichia Coli DC 0) of 0.04 µg/mL and an MIC [5] of 0.15 µg/mL. The MIC (Serratia RG 2 532) was 0.15 µg/mL, the MIC (Escherichia Coli DC 2) was 0.01 µg/mL and the MIC (Escherichia Coli 1507 E) was 0.01 µg/mL. The MIC [6] was 0.3 µg/mL, the MIC (Escherichia Coli T E M) was 0.04 µg/mL and the MIC [7] was no more than 0.01 µg/mL. The MIC [8] was no more than 0.01 µg/mL, the MIC [9] was 0.04 µg/mL and the MIC [10] was 0.04 µg/mL. It also gave an MIC [11] of 0.3 µg/mL.
